Assay results: ChEMBL document CHEMBL5032491, “New Dibenzoquinoxalines Inhibit Triple-Negative Breast Cancer Growth by Dual Targeting of Topoisomerase 1 and the c-MYC G-Quadruplex” (J Med Chem, 2021)
Calls of active or inactive are those of the source. No cut-off for these calls is given here.

Columns and labels:
[1] = system: MDA-MB-231; assay: Antiproliferative activity against human MDA-MB-231 cells assessed as inhibition of cell growth incubated for 24 hrs by CCK8 assay; format: functional, cell-based; conditions: MDA-MB-231, 24 h
[2] = biological target: T1, DNA topoisomerase 1 (Homo sapiens) (UniProt P11387); assay: Inhibition of human topoisomerase 1 mediated relaxation of supercoiled pHOT1 DNA at 5 to 20 uM incubated for 30 mins by agarose gel electrophoresis; conditions: dose 5-20 µM
T1 sequence (whole entry): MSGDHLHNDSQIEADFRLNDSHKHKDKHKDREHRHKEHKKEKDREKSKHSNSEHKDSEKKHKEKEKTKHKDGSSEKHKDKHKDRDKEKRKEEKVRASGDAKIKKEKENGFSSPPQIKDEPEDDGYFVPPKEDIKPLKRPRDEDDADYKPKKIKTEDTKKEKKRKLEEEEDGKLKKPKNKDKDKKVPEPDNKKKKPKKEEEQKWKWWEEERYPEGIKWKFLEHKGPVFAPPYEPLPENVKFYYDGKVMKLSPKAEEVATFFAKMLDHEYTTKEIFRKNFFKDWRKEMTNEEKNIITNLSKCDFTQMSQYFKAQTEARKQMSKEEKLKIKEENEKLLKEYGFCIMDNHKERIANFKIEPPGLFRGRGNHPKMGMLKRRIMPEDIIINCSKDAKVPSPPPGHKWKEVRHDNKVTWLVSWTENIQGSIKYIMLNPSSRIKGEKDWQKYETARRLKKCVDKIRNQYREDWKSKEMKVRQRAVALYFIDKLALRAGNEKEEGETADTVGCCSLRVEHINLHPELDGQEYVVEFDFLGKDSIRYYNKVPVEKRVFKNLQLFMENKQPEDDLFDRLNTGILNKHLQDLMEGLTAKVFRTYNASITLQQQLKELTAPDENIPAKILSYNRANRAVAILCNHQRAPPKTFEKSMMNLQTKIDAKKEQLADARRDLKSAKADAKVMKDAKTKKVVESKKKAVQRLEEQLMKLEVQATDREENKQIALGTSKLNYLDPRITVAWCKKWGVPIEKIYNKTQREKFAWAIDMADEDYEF

[3] = system: Quadruplex DNA; assay: Inhibition of c-myc G4-quadruplex DNA transcriptional activity in human MDA-MB-231 cells incubated for 24 hrs by RT-PCR analysis; format: cell-based

Compound	IC50 [1]	inhibition [2]	inhibition [3]
CN1CCN(c2ccc3c(c2)c2cc(N4CCN(C)CC4)ccc2c2nc4ccccc4nc32)CC1	1.1 µM	Active	Active
COc1cc2nc3c4ccc(N5CCN(C)CC5)cc4c4cc(N5CCN(C)CC5)ccc4c3nc2cc1OC	16.8 µM	inactive	inactive
CN1CCN(c2ccc3c(c2)c2cc(N4CCN(C)CC4)ccc2c2nc4cc(C(F)(F)F)ccc4nc32)CC1	5.6 µM	inactive	inactive
CN1CCN(c2ccc(-c3nc4cc(F)c(F)cc4nc3-c3ccc(N4CCN(C)CC4)cc3)cc2)CC1	1.9 µM	inactive	Active
CN1CCN(c2ccc3c(c2)c2cc(N4CCN(C)CC4)ccc2c2nc4cc5c(cc4nc32)N(C)CCN5C)CC1	3.1 µM	–	inactive
CC1CCN(c2cc3nc4c5ccc(N6CCN(C)CC6)cc5c5cc(N6CCN(C)CC6)ccc5c4nc3cc2F)CC1	9.8 µM	inactive	inactive
CN1CCN(c2ccc3c(c2)c2cc(N4CCN(C)CC4)ccc2c2nc4cnccc4nc32)CC1	17.5 µM	Active	inactive
